Results as given in patent publication US9125930B2, “EGFR aptamer inhibitor for use in therapy and diagnosis” (CONSIGLIO NAZIONALE DELLE RICERCHE, priority 2010, dated 2015).

Assays:
[1] = system: ERK; experiment: Immunoblot of EGF-induced ERK phosphorylation; assay type: cell-based, human; settings: data not shown
Method: To assess the effects of aptamers on EGFR activity, A549 cells (1.5×10^5 cells per 3.5-cm plate) were serum-starved over night, pretreated with 200 nM CL4 42-81 aptamer or the scrambled aptamer used as a negative control for 3 h and then stimulated for 30 min with 50 ng/ml EGF (R&D Systems, Minneapolis, Minn.) either alone or in presence of each aptamer. The aptamers were subjected to a short denaturation-renaturation step (85° C. for 5 min, snap-cooled on ice for 2 min, and allowed to warm up to 37° C.) before each treatment. To prepare cell extracts, cells were washed twice in ice-cold PBS, and lysed in buffer A (50 mM Tris-HCl pH 8.0 buffer containing 150 mM NaCl, 1% Nonidet P-40, 2 mg/ml aprotinin, 1 mg/ml pepstatin, 2 mg/ml leupeptin, 1 mM Na3VO4). Protein concentration was determined by the Bradford assay using bovine serum albumin as the standard. The cell lysates were subjected to SDS-PAGE. […]

[2] = Half life of the aptamer in serum; assay type: in vitro ADME; settings: in 10% serum
[3] = target: EGFR (Homo sapiens, UniProt P00533); experiment: Immunoblot of EGF-dependent EGFR phosphorylation in A549 cells; assay type: cell-based; parameters: endogenous in cells; host or cells: A549; settings: 200 nM aptamer, following 5 min of EGFR stimulation
Method: […] The aptamers were subjected to a short denaturation-renaturation step (85° C. for 5 min, snap-cooled on ice for 2 min, and allowed to warm up to 37° C.) before each treatment. To prepare cell extracts, cells were washed twice in ice-cold PBS, and lysed in buffer A (50 mM Tris-HCl pH 8.0 buffer containing 150 mM NaCl, 1% Nonidet P-40, 2 mg/ml aprotinin, 1 mg/ml pepstatin, 2 mg/ml leupeptin, 1 mM Na3VO4). Protein concentration was determined by the Bradford assay using bovine serum albumin as the standard. The cell lysates were subjected to SDS-PAGE. Gels were electroblotted into polyvinylidene difluoride membranes (Millipore Co., Bedford, Mass.), and filters were probed with the indicated primary antibodies: anti-EGFR and anti-phospho-EGFR (Tyr1062), anti-phospho-44/42 MAP kinase (E10) (also indicated as p-Erk), anti-phospho-Akt, anti-Akt and anti-phospho-STAT3 (Tyr705), anti-ErbB2 (all from Cell Signaling, Beverly, Mass., United States); anti-Erk1, anti-EGFR, anti-ErbB3, anti-ErbB4 (C-16) (Santa Cruz Biotechnology, California, United States); anti-α-αtubulin (DM 1A) (Sigma, St. Louis, Mo.).
Proteins were visualized with peroxidase-conjugated secondary antibodies using the enhanced chemiluminescence system (GE Healthcare Bio-Sciences, Uppsala, Sweden). […]

[4] = system: caspase-8; experiment: Caspase-8 in A549 xenograft tumor lysates; assay type: in vivo, mouse; settings: pooled tumor lysates
Method: (§1) FIG. 8. (A) A549 cells (2,000 cells/well in 24-well plates) were treated for 24 h or 48 h with CL4 42-81 or CL4 scrambled (200 nM-final concentration) and proliferation was determined by [^3H]-thymidine incorporation. Vertical bars indicate the standard deviation values. […] Day 0 marks the first day of injection. Data are shown as means±s.e.m. (n=8 tumors). (C) Three tumors per group selected randomly were excised, lysed, and the pooled lysates were immunoblotted with anti-pEGFR, anti-EGFR, anti-caspase-3, anti-cleaved caspase-8 and anti-αtubulin antibodies, as indicated. Molecular weights of indicated proteins are reported. (D) Cell lysates as in (C) were analyzed by caspase-3 fluorimetric assays.
(§2) Athymic CD-1 nude mice (nu/nu) were housed in a highly controlled microbiological environment, thus to guarantee specific pathogen free conditions. Mice were injected subcutaneously with 3×10^6 (in 100 μl) in vitro propagated A549. Sixteen non-necrotic tumors of about 0.5 cm in diameter were randomly divided into two groups of eight mice as follows: group 1, CL4 scrambled-treated; group 2, CL4 42-81-treated. Aptamers (200 pmols/injection) were injected intra-tumorally in 100-1 μl volumes three times a week for 16 days. Tumors were measured every 2 days.

[5] = system: caspase-3; experiment: Caspase-3 in A549 xenograft tumor lysates; assay type: in vivo, mouse; settings: pooled tumor lysates
Method: as §1, §2

[6] = system: breast SKBR3; experiment: Binding on SKBR3 cells; parameters: species or system human; settings: high level of EGFR; 100 nM
Method: (§3) Binding experiments were performed with 5′-[^32P]-labeled RNA. For labeling 2′-F-Py RNAs were 5′-end dephosphorylated using bacterial alcaline phosphatase (Invitrogen, Carlsbad, Calif.) before [^32P]-5′-end-labeled using T4 kinase (Invitrogen) and γ-[^32P]-ATP (6×10^3 Ci/mmol, GE Healthcare Bio-Sciences, Uppsala, Sweden) according to the supplier's instructions.
(§4) For binding experiments on cells, 3.5×10^4 cells were plated in 24-well plates in triplicate and were incubated with CL4 42-81 aptamer the scrambled sequence used as a negative control at 100 nM concentration in 200 μl of DMEM serum free for 20 min at RT in the presence of 100 μg/ml polyinosine as a nonspecific competitor (Sigma, St. Louis, Mo.). After five washings with 500 μl DMEM, bound sequences were recovered in 300 μl of SDS 1%, and the amount of radioactivity recovered was counted.

[7] = system: Calu1 cells; experiment: Binding on Calu1 cells; parameters: species or system human; settings: EGFR-positive; 100 nM
Method: as §3, §4

[8] = system: NIH3T3 cells stably transfected with human EGFR (NIH/EGFR); experiment: Binding on NIH/EGFR cells; parameters: species or system mouse; settings: [32P]-labeled aptamer at 100 nM; relative to scrambled aptamer
Method: Human NSCLC A549, epidermoid carcinoma A431, glioma U87MG and T98G, breast SKBr3, MCF7 and T47D and mouse fibroblast NIH3T3 (all from American Type Culture Collection, Manassas, Va.) cells were grown in Dulbecco's modified Eagle medium (DMEM) supplemented with 10% fetal bovine serum (FBS) and 2 mM L-glutamine (Invitrogen, Carlsbad, Calif.). NIH3T3 cells stably transfected with human EGFR (NIH/EGFR) were grown in DMEM with 10% FBS and 2 mM L-glutamine supplemented with 50 μg/ml Gentamycin.
as §3, §4

Substance: CL4 42-81: 2′-fluoropyrimidine nuclease-resistant RNA aptamer of 39 nt: 5′ GCCUUAGUAACGUGCUUUGAUGUCGAUUCGACAGGAGGC 3′ (SEQ ID No. 1) (2'-fluoro at CU, RNA at AG, backbone not given here)
- EGF-induced phosphorylation of ERK [1]: decreases
- half life of the aptamer [2]: 6 h
- inhibition of EGF-dependent phosphorylation of EGFR [3]: 60%
- caspase-8 activation in xenograft tumors [4]: activates
- caspase-3 activation in xenograft tumors [5]: activates
- binding on SKBR3 cells [6]: binds
- binding on Calu1 cells [7]: binds
- binding on NIH/EGFR cells [8]: binds
